Converted amounts (≈) assume the structure as drawn. “Also recorded” adds a separate entry of the source.
Columns and labels:
Type in all cases: physicochemical
[1] = Stability study: mixture of forms stirred in solvent systems with different water activity, residual solid by XRPD; settings: high water activity (high humidity, ≥50% RH)
Description: The mixture of existing crystalline Form 2 disclosed in CN102112483A, Form I and Form II was stirred in several solvent systems with different water activity (aw).
It should be noted that the solvent systems for different water activity (aw) include but not limit to H2O and IPA. The same conclusion could be drawn with this experiment in other solvent systems suitable for the preparation of different water activity (aw).

[2] = Hygroscopicity assessment by dynamic vapor sorption (DVS); settings: 25° C., cycle 20%-95%-0%-95% RH
Experimental: Dynamic Vapor Sorption (DVS) is measured via a SMS (Surface Measurement Systems Ltd.) intrinsic DVS. Typical Parameters for DVS test are as follows: Temperature: 25° C. Gas and flow rate: N2, 200 mL/min dm/dt: 0.002%/min Relative Humidity (RH) range: 20% RH-95% RH-0% RH-95% RH Dynamic vapor sorption (DVS) was applied to test hygroscopicity of crystalline Form I with 13.8 mg of sample Form I at 25° C. The weight gains at each relative humidity were recorded in a cycle of 20%-95%-0%-95% RH. […] Dynamic vapor sorption (DVS) was applied to test hygroscopicity of Form VII with 11.5 mg of sample Form VII at 25° C. The weight gains at each relative humidity were recorded in a cycle of 0%-95%-0% RH.

[3] = Dynamic solubility in SGF (simulated gastric fluids), HPLC
Experimental: The HPLC method parameters for solubility test in the present disclosure are as follows:
Saturated solutions of Form I, Form II, Form III, Form VII and the existing crystalline Form 2 in SGF (Simulated gastric fluids) were prepared. Saturated solutions of Form II, Form III, Form VII, Form VIII and the existing crystalline Form 2 in FaSSIF (Fasted state simulated intestinal fluids, pH=6.5) were prepared. After equilibrated for 1 hour, concentrations of the saturated solutions were measured by High Performance Liquid Chromatography (HPLC).

[4] = Stability study: storage at 25° C./60% RH and 40° C./75% RH, XRPD; settings: for Solid Form after storage: 3 months
Experimental: Form I, Form II, Form III and Form VI were stored under different conditions of 25° C./60% RH and 40° C./75% RH for 3 months. XRPD was applied to detect the crystalline forms. The XRPD overlay of Form I, Form II, Form III and Form VI before and after stored under above two conditions were shown in FIG. 44, FIG. 45, FIG. 46 and FIG. 47, respectively.

[5] = Morphology assessment by polarized light microscopy
Experimental: The existing crystalline Form 2 and Form I in the present disclosure were tested by polarized light microscopy. The PLM results of the Form 2 and Form I were shown in FIG. 48 and FIG. 49, respectively.

[6] = Particle size distribution assessment (laser particle size analyzer)
Description: The result of particle size distribution (PSD) in the present disclosure was acquired by laser particle size analyzer with S3500 model from Microtrac Company. The Microtrac S3500 is equipped with a SDC (Sample Delivery Controller) sampling system. This experiment uses a wet method and the dispersion medium is Isopar G. The method and parameters of the laser particle size analyzer are as follows: [table] Certain amount of Form I, Form V, Form VIII and existing crystalline Form 2 were taken for particle size distribution test, and the results were shown in Table 29.

[7] = Mechanical stability assessment: manual grinding, XRPD; settings: ground manually for 5 minutes in mortar
Experimental: Solid sample of Form I, Form VI and the existing crystalline Form 2 were ground manually for 5 minutes in mortar. XRPD was applied to detect the crystalline form.

CCOc1ccc(Cc2cc([C@@H]3O[C@H](SC)[C@@H](O)[C@H](O)[C@H]3O)ccc2Cl)cc1 [Form I, (2S,3R,4R,5S,6R)-2-(4-chloro-3-(4-ethoxybenzyl)phenyl)-6-(methylthio)tetrahydro-2H-pyran-3,4,5-triol]
Stability in high water activity environment [1]: more stable than Form 2 | Weight gain under 80% RH [2]: 3.55% | Form change before and after DVS ([2]; XRPD): substantially unchanged; also recorded: No form change | Solubility 1 hour ([3]; Media: SGF, equilibrated for 1 hour): 100 µg/mL (≈ 235 µM) | Solubility relative to existing crystalline Form 2 ([3]; SGF, 1 hour): 1.7 times | Stability on storage ([4]; 25° C./60% RH and 40° C./75% RH for 3 months): good stability | Solid Form after storage ([4]; 25° C./60% RH): Form I (the middle | Solid Form after storage ([4]; 40° C./75% RH): Form I (the bottom | Crystal shape (PLM) [5]: rod-like shape | Particle size distribution (description) [6]: narrow and normal | D10 ([6]; wet method, Isopar G): 3.34 μm | D50 ([6]; wet method, Isopar G): 8.97 μm | D90 ([6]; wet method, Isopar G): 31.63 μm | MV (average particle size based on volume) ([6]; wet method, Isopar G): 14.48 μm | Crystallinity [7]: Decreased (Slightly | Final form [7]: no crystalline form change; also recorded: Form I | Mechanical stability [7]: better mechanical stability
